ChEMBL document CHEMBL4507311, “Data for DCP probe A-1155463” (2021)

Legend:
[1] = system: Tyrosine-protein kinase ABL1 (Homo sapiens), P00519 [E255K]; details: Compound concentration 1000.0 nM
[2] = molecular target: Tyrosine-protein kinase ABL1 (Homo sapiens) (UniProt P00519); details: Compound concentration 1000.0 nM
[3] = molecular target: Tyrosine-protein kinase ABL2 (Homo sapiens) (UniProt P42684); details: Compound concentration 1000.0 nM
[4] = molecular target: Aurora kinase A (Homo sapiens) (UniProt O14965); details: Compound concentration 1000.0 nM
[5] = molecular target: Cytoplasmic tyrosine-protein kinase BMX (Homo sapiens) (UniProt P51813); details: Compound concentration 1000.0 nM
[6] = system: Serine/threonine-protein kinase B-raf (Homo sapiens), P15056 [V600E]; details: Compound concentration 1000.0 nM
[7] = molecular target: Protein-tyrosine kinase 6 (Homo sapiens) (UniProt Q13882); details: Compound concentration 1000.0 nM
[8] = molecular target: Calcium/calmodulin-dependent protein kinase type II subunit gamma (Homo sapiens) (UniProt Q13555); details: Compound concentration 1000.0 nM
[9] = molecular target: Cyclin-dependent kinase 9 (Homo sapiens) (UniProt P50750); details: Compound concentration 1000.0 nM
[10] = molecular target: Citron Rho-interacting kinase (Homo sapiens) (UniProt O14578); details: Compound concentration 1000.0 nM
[11] = molecular target: Megakaryocyte-associated tyrosine-protein kinase (Homo sapiens) (UniProt P42679); details: Compound concentration 1000.0 nM
[12] = molecular target: Death-associated protein kinase 2 (Homo sapiens) (UniProt Q9UIK4); details: Compound concentration 1000.0 nM
Sequence of Death-associated protein kinase 2 (Homo sapiens) (Q9UIK4 whole entry, looked up): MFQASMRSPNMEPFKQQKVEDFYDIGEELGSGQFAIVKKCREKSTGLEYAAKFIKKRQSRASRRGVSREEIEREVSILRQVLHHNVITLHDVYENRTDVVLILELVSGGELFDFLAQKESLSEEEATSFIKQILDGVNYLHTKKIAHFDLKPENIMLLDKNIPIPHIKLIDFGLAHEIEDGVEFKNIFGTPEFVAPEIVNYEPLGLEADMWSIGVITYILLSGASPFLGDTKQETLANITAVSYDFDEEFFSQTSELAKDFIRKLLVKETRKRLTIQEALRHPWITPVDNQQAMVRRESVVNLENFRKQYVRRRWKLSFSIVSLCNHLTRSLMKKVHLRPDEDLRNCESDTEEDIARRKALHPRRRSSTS

[13] = system: Epidermal growth factor receptor (Homo sapiens), P00533 [UNDEFINED MUTATION]; details: Compound concentration 1000.0 nM
[14] = molecular target: Ephrin type-A receptor 1 (Homo sapiens) (UniProt P21709); details: Compound concentration 1000.0 nM
[15] = molecular target: Ephrin type-B receptor 2 (Homo sapiens) (UniProt P29323); details: Compound concentration 1000.0 nM
[16] = molecular target: Receptor tyrosine-protein kinase erbB-2 (Homo sapiens) (UniProt P04626); details: Compound concentration 1000.0 nM
[17] = molecular target: Fibroblast growth factor receptor 1 (Homo sapiens) (UniProt P11362); details: Compound concentration 1000.0 nM
[18] = system: Receptor-type tyrosine-protein kinase FLT3 (Homo sapiens), P36888 [UNDEFINED MUTATION]; details: Compound concentration 1000.0 nM
Sequence of Receptor-type tyrosine-protein kinase FLT3 (Homo sapiens), P36888 [UNDEFINED MUTATION] (P36888 whole entry, looked up, change not shown): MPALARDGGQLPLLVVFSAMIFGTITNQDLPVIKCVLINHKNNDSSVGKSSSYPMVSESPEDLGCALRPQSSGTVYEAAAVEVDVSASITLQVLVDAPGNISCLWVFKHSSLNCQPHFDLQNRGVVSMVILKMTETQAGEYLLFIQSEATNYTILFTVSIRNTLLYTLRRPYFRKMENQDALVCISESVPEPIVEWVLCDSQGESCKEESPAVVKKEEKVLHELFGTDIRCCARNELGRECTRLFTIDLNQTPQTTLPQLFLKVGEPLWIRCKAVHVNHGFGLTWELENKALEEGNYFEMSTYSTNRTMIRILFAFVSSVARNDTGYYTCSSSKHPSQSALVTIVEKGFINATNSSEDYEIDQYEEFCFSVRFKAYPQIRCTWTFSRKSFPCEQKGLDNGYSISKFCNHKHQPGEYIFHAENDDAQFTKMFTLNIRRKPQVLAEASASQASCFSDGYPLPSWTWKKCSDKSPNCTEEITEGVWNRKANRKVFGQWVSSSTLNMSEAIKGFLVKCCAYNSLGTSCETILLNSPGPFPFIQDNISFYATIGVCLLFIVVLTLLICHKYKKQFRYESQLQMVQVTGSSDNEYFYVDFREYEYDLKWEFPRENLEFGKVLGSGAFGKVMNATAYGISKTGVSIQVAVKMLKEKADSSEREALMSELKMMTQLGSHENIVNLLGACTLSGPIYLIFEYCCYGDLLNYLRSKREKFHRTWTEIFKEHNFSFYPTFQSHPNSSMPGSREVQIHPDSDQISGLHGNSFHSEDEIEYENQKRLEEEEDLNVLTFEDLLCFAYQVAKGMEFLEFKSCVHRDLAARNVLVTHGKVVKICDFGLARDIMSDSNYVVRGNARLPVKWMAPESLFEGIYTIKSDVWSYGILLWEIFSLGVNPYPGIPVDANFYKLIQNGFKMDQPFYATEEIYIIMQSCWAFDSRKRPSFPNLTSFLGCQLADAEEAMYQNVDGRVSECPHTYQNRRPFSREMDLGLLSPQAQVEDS

[19] = system: Receptor-type tyrosine-protein kinase FLT3 (Homo sapiens), P36888 [UNDEFINED MUTATION]; details: Compound concentration 1000.0 nM; remark: listed apart in the source
[20] = molecular target: Tyrosine-protein kinase FRK (Homo sapiens) (UniProt P42685); details: Compound concentration 1000.0 nM
[21] = molecular target: Mitogen-activated protein kinase 9 (Homo sapiens) (UniProt P45984); details: Compound concentration 1000.0 nM
[22] = molecular target: Mast/stem cell growth factor receptor Kit (Homo sapiens) (UniProt P10721); details: Compound concentration 1000.0 nM
[23] = molecular target: Leukocyte tyrosine kinase receptor (Homo sapiens) (UniProt P29376); details: Compound concentration 1000.0 nM
[24] = molecular target: Mitogen-activated protein kinase kinase kinase 2 (Homo sapiens) (UniProt Q9Y2U5); details: Compound concentration 1000.0 nM
[25] = molecular target: Mitogen-activated protein kinase kinase kinase 4 (Homo sapiens) (UniProt Q9Y6R4); details: Compound concentration 1000.0 nM
[26] = molecular target: Mitogen-activated protein kinase kinase kinase kinase 3 (Homo sapiens) (UniProt Q8IVH8); details: Compound concentration 1000.0 nM
[27] = molecular target: Myosin light chain kinase (Homo sapiens) (UniProt Q32MK0); details: Compound concentration 1000.0 nM
[28] = molecular target: Myosin light chain kinase, smooth muscle (Homo sapiens) (UniProt Q15746); details: Compound concentration 1000.0 nM
Sequence of Myosin light chain kinase, smooth muscle (Homo sapiens) (Q15746 whole entry): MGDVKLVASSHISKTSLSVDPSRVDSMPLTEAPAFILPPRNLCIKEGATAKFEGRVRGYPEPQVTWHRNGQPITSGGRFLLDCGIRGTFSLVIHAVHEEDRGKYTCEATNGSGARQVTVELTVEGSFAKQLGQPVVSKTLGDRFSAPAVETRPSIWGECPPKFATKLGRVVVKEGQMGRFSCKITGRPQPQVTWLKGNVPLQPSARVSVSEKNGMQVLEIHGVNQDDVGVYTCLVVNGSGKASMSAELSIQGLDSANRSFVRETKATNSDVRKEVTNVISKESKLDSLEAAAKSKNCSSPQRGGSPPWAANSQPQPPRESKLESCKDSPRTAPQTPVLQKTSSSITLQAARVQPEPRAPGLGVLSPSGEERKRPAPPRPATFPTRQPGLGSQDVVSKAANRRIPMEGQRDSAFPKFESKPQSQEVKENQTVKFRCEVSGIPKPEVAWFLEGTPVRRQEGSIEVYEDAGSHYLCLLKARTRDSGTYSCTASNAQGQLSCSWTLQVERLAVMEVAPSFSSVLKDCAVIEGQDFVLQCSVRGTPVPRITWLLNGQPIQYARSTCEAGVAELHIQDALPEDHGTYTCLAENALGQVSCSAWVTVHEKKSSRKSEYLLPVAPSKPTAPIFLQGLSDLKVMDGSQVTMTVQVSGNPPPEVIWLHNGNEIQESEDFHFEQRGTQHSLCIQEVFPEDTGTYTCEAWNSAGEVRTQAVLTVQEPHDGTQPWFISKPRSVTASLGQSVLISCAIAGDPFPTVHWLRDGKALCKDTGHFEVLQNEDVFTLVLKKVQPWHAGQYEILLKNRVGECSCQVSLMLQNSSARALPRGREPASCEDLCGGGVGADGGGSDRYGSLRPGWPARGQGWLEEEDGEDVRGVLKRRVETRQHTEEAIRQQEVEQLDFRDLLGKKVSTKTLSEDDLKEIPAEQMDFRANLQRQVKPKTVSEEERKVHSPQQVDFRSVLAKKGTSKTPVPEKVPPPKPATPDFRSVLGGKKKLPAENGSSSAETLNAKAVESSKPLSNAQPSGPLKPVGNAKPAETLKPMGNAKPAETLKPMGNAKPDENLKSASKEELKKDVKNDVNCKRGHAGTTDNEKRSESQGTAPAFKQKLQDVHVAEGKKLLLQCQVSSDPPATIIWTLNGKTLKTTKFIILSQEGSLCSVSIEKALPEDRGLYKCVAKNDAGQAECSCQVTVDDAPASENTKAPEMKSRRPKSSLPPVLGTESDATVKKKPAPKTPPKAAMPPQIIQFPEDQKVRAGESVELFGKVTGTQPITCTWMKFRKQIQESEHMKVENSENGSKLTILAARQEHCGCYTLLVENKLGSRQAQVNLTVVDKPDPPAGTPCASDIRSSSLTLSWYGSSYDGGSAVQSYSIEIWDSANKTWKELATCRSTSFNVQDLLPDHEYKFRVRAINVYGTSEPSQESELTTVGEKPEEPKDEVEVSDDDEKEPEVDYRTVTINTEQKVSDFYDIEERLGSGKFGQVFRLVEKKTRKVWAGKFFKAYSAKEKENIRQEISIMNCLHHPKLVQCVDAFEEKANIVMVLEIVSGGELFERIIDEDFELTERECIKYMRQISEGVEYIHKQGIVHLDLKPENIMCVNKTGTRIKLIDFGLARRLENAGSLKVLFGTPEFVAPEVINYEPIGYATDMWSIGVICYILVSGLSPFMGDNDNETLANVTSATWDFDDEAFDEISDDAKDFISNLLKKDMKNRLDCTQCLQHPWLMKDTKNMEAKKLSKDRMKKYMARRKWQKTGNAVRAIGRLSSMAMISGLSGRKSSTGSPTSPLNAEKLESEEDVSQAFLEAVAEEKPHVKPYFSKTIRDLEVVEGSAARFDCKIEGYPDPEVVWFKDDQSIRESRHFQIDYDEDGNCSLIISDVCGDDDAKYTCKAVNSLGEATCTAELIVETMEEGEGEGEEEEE

[29] = molecular target: Serine/threonine-protein kinase Nek7 (Homo sapiens) (UniProt Q8TDX7); details: Compound concentration 1000.0 nM
Sequence of Serine/threonine-protein kinase Nek7 (Homo sapiens) (Q8TDX7 whole entry, looked up): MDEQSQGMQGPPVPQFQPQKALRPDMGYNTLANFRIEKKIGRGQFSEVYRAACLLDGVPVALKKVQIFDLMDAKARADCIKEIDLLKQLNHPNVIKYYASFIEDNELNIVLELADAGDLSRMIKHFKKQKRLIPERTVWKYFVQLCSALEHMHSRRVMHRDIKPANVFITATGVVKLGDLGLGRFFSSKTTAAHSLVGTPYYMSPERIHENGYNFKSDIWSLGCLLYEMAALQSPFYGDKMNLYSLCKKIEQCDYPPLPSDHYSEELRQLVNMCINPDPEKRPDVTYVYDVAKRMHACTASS

[30] = molecular target: Serine/threonine-protein kinase Nek9 (Homo sapiens) (UniProt Q8TD19); details: Compound concentration 1000.0 nM
[31] = molecular target: Mitogen-activated protein kinase 12 (Homo sapiens) (UniProt P53778); details: Compound concentration 1000.0 nM
[32] = molecular target: Cyclin-dependent kinase 17 (Homo sapiens) (UniProt Q00537); details: Compound concentration 1000.0 nM
[33] = molecular target: Cyclin-dependent kinase 14 (Homo sapiens) (UniProt O94921); details: Compound concentration 1000.0 nM
Sequence of Cyclin-dependent kinase 14 (Homo sapiens) (O94921 whole entry, canonical isoform): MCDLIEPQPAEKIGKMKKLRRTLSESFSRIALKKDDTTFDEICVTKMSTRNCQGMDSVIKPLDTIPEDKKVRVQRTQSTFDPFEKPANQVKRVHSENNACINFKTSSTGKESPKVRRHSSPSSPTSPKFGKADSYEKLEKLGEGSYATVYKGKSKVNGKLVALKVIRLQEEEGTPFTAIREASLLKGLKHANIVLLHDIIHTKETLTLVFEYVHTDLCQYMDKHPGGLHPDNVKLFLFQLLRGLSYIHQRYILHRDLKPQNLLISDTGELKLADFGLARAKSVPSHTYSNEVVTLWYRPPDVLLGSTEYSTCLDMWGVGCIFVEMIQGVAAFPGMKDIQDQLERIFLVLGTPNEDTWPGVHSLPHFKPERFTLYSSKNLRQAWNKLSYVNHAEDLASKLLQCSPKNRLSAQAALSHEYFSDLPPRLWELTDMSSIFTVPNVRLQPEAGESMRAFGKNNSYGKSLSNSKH

[34] = system: Phosphatidylinositol 4,5-bisphosphate 3-kinase catalytic subunit alpha isoform (Homo sapiens), P42336 [Q546K]; details: Compound concentration 1000.0 nM
[35] = molecular target: Protein kinase C theta type (Homo sapiens) (UniProt Q04759); details: Compound concentration 1000.0 nM
[36] = molecular target: Serine/threonine-protein kinase D1 (Homo sapiens) (UniProt Q15139); details: Compound concentration 1000.0 nM
[37] = system: Proto-oncogene tyrosine-protein kinase receptor Ret (Homo sapiens), P07949 [V804M]; details: Compound concentration 1000.0 nM
[38] = molecular target: Ribosomal protein S6 kinase alpha-5 (Homo sapiens) (UniProt O75582); details: Compound concentration 1000.0 nM
[39] = molecular target: Ribosomal protein S6 kinase alpha-3 (Homo sapiens) (UniProt P51812); details: Compound concentration 1000.0 nM
[40] = molecular target: Serine/threonine-protein kinase SBK1 (Homo sapiens) (UniProt Q52WX2); details: Compound concentration 1000.0 nM
[41] = molecular target: SNF-related serine/threonine-protein kinase (Homo sapiens) (UniProt Q9NRH2); details: Compound concentration 1000.0 nM
[42] = molecular target: Mitogen-activated protein kinase kinase kinase 7 (Homo sapiens) (UniProt O43318); details: Compound concentration 1000.0 nM
[43] = molecular target: BDNF/NT-3 growth factors receptor (Homo sapiens) (UniProt Q16620); details: Compound concentration 1000.0 nM
Sequence of BDNF/NT-3 growth factors receptor (Homo sapiens) (Q16620 32-822 limits assumed): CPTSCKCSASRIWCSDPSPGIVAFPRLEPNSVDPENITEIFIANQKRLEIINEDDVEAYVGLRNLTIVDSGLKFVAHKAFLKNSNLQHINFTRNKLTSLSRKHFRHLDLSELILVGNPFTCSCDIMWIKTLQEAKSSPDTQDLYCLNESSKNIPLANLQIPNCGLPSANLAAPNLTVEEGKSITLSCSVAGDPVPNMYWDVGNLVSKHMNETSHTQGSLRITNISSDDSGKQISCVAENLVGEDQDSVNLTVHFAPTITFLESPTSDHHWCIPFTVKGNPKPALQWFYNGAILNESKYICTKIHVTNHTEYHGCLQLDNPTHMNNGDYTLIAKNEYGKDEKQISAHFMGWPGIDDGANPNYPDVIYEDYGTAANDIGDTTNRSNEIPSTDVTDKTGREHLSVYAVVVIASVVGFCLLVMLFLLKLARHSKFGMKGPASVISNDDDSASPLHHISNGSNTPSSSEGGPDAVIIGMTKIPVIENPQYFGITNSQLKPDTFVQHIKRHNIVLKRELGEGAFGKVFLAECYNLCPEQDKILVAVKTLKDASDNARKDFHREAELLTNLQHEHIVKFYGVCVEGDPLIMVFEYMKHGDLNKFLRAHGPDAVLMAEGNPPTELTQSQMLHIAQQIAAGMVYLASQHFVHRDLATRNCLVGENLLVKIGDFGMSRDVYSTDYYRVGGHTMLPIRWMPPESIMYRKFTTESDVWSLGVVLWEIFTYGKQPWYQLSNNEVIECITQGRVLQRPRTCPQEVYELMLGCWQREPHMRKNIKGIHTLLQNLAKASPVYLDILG

[44] = molecular target: 5-hydroxytryptamine receptor 1D (Homo sapiens) (UniProt P28221); details: Compound concentration 10.0 uM
[45] = molecular target: 5-hydroxytryptamine receptor 6 (Homo sapiens) (UniProt P50406); details: Compound concentration 10.0 uM

CN(C)CC#Cc1ccc(OCCCc2sc(N3CCc4cccc(C(=O)Nc5nc6ccccc6s5)c4C3)nc2C(=O)O)c(F)c1 [A-1155463]
inactive: residual activity [1] 85% | residual activity [2] 100% | residual activity [3] 100% | residual activity [4] 92% | residual activity [5] 82% | residual activity [6] 79% | residual activity [7] 96% | residual activity [8] 62% | residual activity [9] 94% | residual activity [10] 77% | residual activity [11] 96% | residual activity [12] 90% | residual activity [13] 100% | residual activity [14] 100% | residual activity [15] 100% | residual activity [16] 100% | residual activity [17] 100% | residual activity [18] 97% | residual activity [19] 100% | residual activity [20] 96% | residual activity [21] 76% | residual activity [22] 85% | residual activity [23] 100% | residual activity [24] 75% | residual activity [25] 100% | residual activity [26] 92% | residual activity [27] 78% | residual activity [28] 81% | residual activity [29] 99% | residual activity [30] 95% | residual activity [31] 89% | residual activity [32] 99% | residual activity [33] 100% | residual activity [34] 79% | residual activity [35] 92% | residual activity [36] 100% | residual activity [37] 98% | residual activity [38] 83% | residual activity [39] 97% | residual activity [40] 100% | residual activity [41] 100% | residual activity [42] 100% | residual activity [43] 100% | inhibition [44] 34.5% | inhibition [45] -1.75%
